Three compounds from patent US5958944A, “Benzamide compounds and pharmaceutical use thereof” (Yoshitomi Pharmaceutical Industries, Ltd., priority 1994, dated 1999) can be followed below.

The subject of experiment [1] is spontaneously hypertensive rats (SHR). Briefly: Pharmacological Experiment 1: hypotensive effects, systolic blood pressure at one hour after oral administration, tail cuff method. It is filed as in vivo, rat. As to conditions: SHR P.O., 30 mg/kg. The procedure: Pharmacological Experiment 1: hypotensive effects
To spontaneously hypertensive rats (SHR) weighing 350-450 g (3-5 per group) was orally administered a test compound (30 mg/kg) dissolved in 0.5% hydroxypropylmethylcellulose, and systolic blood pressure at one hour after administration was determined by tail cuff method to examine hypotensive effects.

The next experiment concerns thoracic aorta. Briefly: Pharmacological Experiment 2: vasodilating effects, relaxation of phenylephrine-contracted thoracic aorta rings. The class given is cell-based. As to conditions: Oryctolagus cuniculus; rabbit thoracic aorta rings contracted with phenylephrine (10^-6 M); contraction by phenylephrine as 100%; read-out: vasodilating action (concentration necessary for 50% relaxation, IC50). The procedure: Pharmacological Experiment 2: vasodilating effects
Male rabbits (body weight 1.9-3.0 kg) were anesthetized with sodium pentobarbital and killed by exsanguinity. The thoracic aorta was removed and about 2 mm wide ring specimens were prepared. The specimens were hung in a 40 ml Magnus bath filled with Krebs-Henseleit solution (NaCl 117 mM; KCl 4.7 mM; CaCl2 2.5 mM; MgSO4 1.2 mM; NaHCO3 24.8 mM; KH2 PO4 1.2 mM; glucose 11.0 mM) at 37° C. at a load of 2 g. The Magnus bath was constantly aerated with a mixed gas (95% oxygen+5% carbon dioxide). The tension of the specimens was measured by isometric transducer (TB-611T, Nihon Koden). The specimens were contracted with phenylephrine (10^-6 M) and when the contraction became constant, the compound was cumulatively added to observe relaxing response. The relaxing response by the compound was calculated relative to contraction by phenylephrine as 100% as the concentration necessary for 50% relaxation (IC50, μM).

A further experiment deals with tracheal specimen. Briefly: Pharmacological Experiment 3: effect on contraction caused by acetylcholine in extracted tracheal specimen. It is filed as cell-based. The following applies: Cavia porcellus; guinea pig trachea contracted with acetylcholine (10^-6 M); relative to maximum response by papaverine (10^-4 M) as 100%; read-out: bronchodilative action (IC50). The procedure: Pharmacological Experiment 3: Effect on contraction caused by acetylcholine in tracheal specimen extracted from guinea pig
Male Hartley guinea pigs (body weight 260-390 g) were anesthetized by intraperitoneal administration of pentobarbital sodium (100 mg/kg) and killed by exsanguinity. The trachea was removed and ventral cartilage was cut open and ligament was cut in 3 mm width to prepare specimens. The specimens were hung in a 40 ml Magnus bath filled with Krebs-Henseleit solution (NaCl 117 mM; KCl 4.7 mM; CaCl2 2.5 mM; MgSO4 1.2 mM; NaHCO3 24.8 mM; KH2 PO4 1.2 mM; glucose 11.0 mM) at 37° C. at a load of 1 g. The Magnus bath was constantly aerated with a mixed gas (95% oxygen+5% carbon dioxide). The tension of the specimens was measured by isometric transducer (TB-611T, Nihon Koden) and recorded on a recorder (Ti-102, Tokai Irika). The specimens were contracted with acetylcholine (10^-6 M) and when the contraction became constant, the compound was cumulatively added to observe relaxing response. The relaxing response by the compound was calculated relative to maximum response by papaverine (10^-4 M) as 100% as the concentration necessary for 50% relaxation (IC50, μM).

Molecules are shown by their SMILES.

For `C[C@@H](N)c1ccc(C(=O)Nc2ccncc2)cc1` [Example 1, (R)-N-(4-pyridyl)-4-(1-aminoethyl)benzamide], the hypotensive effect in experiment [1] was -116 mmHg.
As to `C[C@@H](N)c1ccc(C(=O)Nc2ccnc3[nH]ccc23)cc1N=[N+]=[N-]` [Example 150, (R)-(-)-N-(1H-pyrrolo[2,3-b]pyridin-4-yl)-4-(1-aminoethyl)-3-azidobenzamide], the IC50 with thoracic aorta was found to be 30 nM.
Take `C[C@@H](N)c1ccc(C(=O)Nc2ccnc3[nH]ccc23)cc1` [Example 9, (R)-(+)-N-(1H-pyrrolo[2,3-b]pyridin-4-yl)-4-(1-aminoethyl)benzamide]: in experiment [1], the hypotensive effect is recorded as -131 mmHg. In addition, the IC50 with thoracic aorta and with tracheal specimen was 50 nM in each case.
